Data from patent US20150166520A1, “AMIDO-SUBSTITUTED PYRIMIDINONE DERIVATIVES USEFUL FOR THE TREATMENT OF HIV INFECTION” (MERCK SHARP & DOHME CORP., priority 2012, published 2015).

How the values were obtained:
[1] = system: cryopreserved hepatocytes from rat; experiment: Metabolism of compounds in hepatocyte suspensions (prodrug hydrolysis), rat; type: in vitro ADME; conditions: prodrug 1 μM, rat hepatocytes 1×10^6 cells/mL, 37° C.
Experimental: (§1) Selected compounds of the present invention (1 μM) were incubated with suspensions of cryopreserved hepatocytes from rat, dog and human subjects at a cell density of 1×10^6 cells/mL. The samples were incubated for 0, 5, 15, 30, 60 and 90 minutes in a 95% humidified incubator at 37° C. with 5% CO2. At each time point, the samples were quenched with acetonitrile containing an appropriate internal standard. The samples were then vortex-mixed and centrifuged at ˜2,900×g for 30 minutes. The supernatants were transferred to clean plates and analyzed using LC-MS/MS. Following quantification of prodrug and parent in the samples, half lives of conversion (t1/2) were determined from the rates of prodrug degradation according to first-order kinetics. Conversion to active metabolite (compound 1a) was confirmed by following the formation of compound 1a.

[2] = Dog pharmacokinetic study, oral dose; type: in vivo; set-up: AUC(0-t) / Tmax: dose or concentration left out as unconfirmed; conditions: male, plasma, fasted Beagle dogs, compound measured = prodrug dosed; for Cmax / AUC(0-t): mean ± SE; for AUC(0-t): read-out: AUC0-24 hr; for Tmax: median
Experimental: (§2) Six Male Beagle Dogs (Marshall Farms) weighing 9.0-11.6 kg were used for the studies. Studies were conducted under a protocol approved by the WP-IACUC (Animal Procedure Statement #09068544080285). […] Dosing was followed by 5 mL water rinse via oral gavage for oral dosing or with a post-dose water flush of the catheter for colonic dosing. Water was restricted for 1 hour post dose. Food was returned at 4 hours after dosing. Blood (1-mL) was drawn at pre-dose, 0.25, 0.5, 1, 2, 4, 6, 8 and 24 hours post-dosing. The plasma was separated by centrifugation (10 minutes at 2500 g) and kept frozen at −70° C. until analysis by LC-MS/MS.

[3] = Oral pharmacokinetics in Wistar-Hanover rats; type: in vivo, male Wistar-Hanover rats; conditions: plasma, rat; for bioavailability: oral, prodrug, from dose-adjusted IV and P.O. AUC ratios; for Tmax / AUC / Cmax / nAUC: oral gavage, prodrug measured; for AUC: read-out: AUC0-x hr
Experimental: (§3) Selected compounds of the present invention were administered in suitable vehicles to male Wistar-Hanover rats. Intravenous (IV) administration to rats was conducted via cannulas implanted in the jugular vein. For oral administration, test compounds were administered by gavage. Blood samples were serially collected following dose administration for up to 24 hr and plasma was separated by centrifugation. The concentration of test compound in rat plasma were determined by a LC-MS/MS assay following a protein precipitation step and addition of an appropriate internal standard. Quantification was done by determining peak area-ratios of the test compound and compound 1a (the metabolite of each of the test compounds) to the internal standard. Pharmacokinetic parameters were obtained using non-compartmental methods (Watson®). The area under the plasma concentration-time curve (AUC0-t) was calculated from the first time point (0 min) up to the last time point with measurable test compound concentration using the linear trapezoidal or linear/log-linear trapezoidal rule. The IV plasma clearance was calculated by dividing the dose by AUC0-inf. The terminal half-life of elimination was determined by unweighted linear regression analysis of the log-transformed data. The time points for determination of half-life were selected by visual inspection of the data. The volume of distribution at steady state (Vdss) was obtained from the product of plasma clearance and mean residence time (determined by dividing the area under the first moment curve by the area under the curve). The maximum plasma concentration (Cmax) and the time at which maximum concentration occurred (Tmax) were obtained by inspection of the plasma concentration-time data. Absolute oral bioavailability was determined from dose-adjusted IV and P.O. AUC ratios.

[4] = Intravenous pharmacokinetics in Wistar-Hanover rats; type: in vivo, male Wistar-Hanover rats; conditions: rat, plasma; for half-life / AUC / Vd / clearance: male, Wistar-Hanover; for half-life / Vd / clearance: prodrug; for AUC / nAUC0-∞: prodrug measured; for AUC: read-out: AUC0-x; for Vd: read-out: Vdss; for clearance: read-out: Clp
Experimental: as §3

[5] = Dog pharmacokinetic study, colonic dose; type: in vivo, Male Beagle Dogs; set-up: AUC(0-t) / Tmax: dose or concentration left out as unconfirmed; conditions: for colonic absorption versus metabolite Compound 1a: Beagle dogs, colonic dosing, statement in words; for Cmax / AUC(0-t) / Tmax: male, dog, plasma, fasted Beagle dogs, Colonic, compound measured = prodrug dosed; for Cmax / AUC(0-t): mean ± SE; for AUC(0-t): read-out: AUC0-24 hr; for Tmax: median
Experimental: as §2

[6] = system: cryopreserved hepatocytes from human; experiment: Metabolism of compounds in hepatocyte suspensions (prodrug hydrolysis), human; type: in vitro ADME; conditions: prodrug 1 μM, human hepatocytes 1×10^6 cells/mL, 37° C.
Experimental: as §1

[7] = system: cryopreserved hepatocytes from dog; experiment: Metabolism of compounds in hepatocyte suspensions (prodrug hydrolysis), dog; type: in vitro ADME; conditions: prodrug 1 μM, dog hepatocytes 1×10^6 cells/mL, 37° C.
Experimental: as §1

[8] = male, Wistar-Hanover, read-out: Cmax

Compound	Remaining at 90 min, Rat [1] [%]	bioavailability ([3]; male, Wistar-Hanover) [%]	Tmax ([3]; male, Wistar-Hanover) [min]	AUC ([3]; male, Wistar-Hanover) [µM·h]	Cmax [3, 8] [nM]	nAUC [3] [µM·h]	half-life [4] [min]	AUC [4] [µM·h]	nAUC0-∞ [4] [µM·h]	Remaining at 90 min, Human [6] [%]	Remaining at 90 min, Dog [7] [%]	other results
CCOC(=O)OC(C)Oc1c(C(=O)NCc2ccc(F)cc2)nc(C(C)(C)NC(=O)c2nnc(C)o2)n(C)c1=O (stereo not shown) [Compound 1]	30.30	3	15	0.002	6	0.0004	9	0.012	0.012	19.32	15.94	Cmax [2]: 212 ± 32 nM; AUC(0-t) [2]: 0.146 ± 0.033 µM·h; Tmax [2]: 18 min; colonic absorption versus metabolite Compound 1a [5]: significant increase in colonic absorption; Cmax [5]: 91 ± 25 nM; AUC(0-t) [5]: 0.083 ± 0.034 µM·h; Tmax [5]: 18 min
Cc1nnc(C(=O)NC(C)(C)c2nc(C(=O)NCc3ccc(F)cc3)c(OC(C)OC(=O)OC(C)C)c(=O)n2C)o1 (stereo not shown) [Compound 2]		6.6	67.8	0.039	19	0.008	10.2	0.119	0.119			Vd [4]: 2.17 L/kg; clearance [4]: 244 mL/min/kg
CCCCOC(=O)OC(C)Oc1c(C(=O)NCc2ccc(F)cc2)nc(C(C)(C)NC(=O)c2nnc(C)o2)n(C)c1=O (stereo not shown) [Compound 7]	2.72									2.12	3.31	
Cc1nnc(C(=O)NC(C)(C)c2nc(C(=O)NCc3ccc(F)cc3)c(OC(OC(=O)OC(C)C)C(C)C)c(=O)n2C)o1 (stereo not shown) [Compound 12]	38.75									14.81	5.97	
CCOC(=O)OC(CC)Oc1c(C(=O)NCc2ccc(F)cc2)nc(C(C)(C)NC(=O)c2nnc(C)o2)n(C)c1=O (stereo not shown) [Compound 15]	6.20	7	45	0.028	21	0.006	8.4	0.085	0.085	14.00	8.90	Vd [4]: 3.48 L/kg; clearance [4]: 388 mL/min/kg
Cc1nnc(C(=O)NC(C)(C)c2nc(C(=O)NCc3ccc(F)cc3)c(OCOC(=O)OC(C)C)c(=O)n2C)o1 [Compound 20]	0.60									1.80	1.70	
Cc1nnc(C(=O)NC(C)(C)c2nc(C(=O)NCc3ccc(F)cc3)c(OCOC(=O)C(C)(C)C)c(=O)n2C)o1 [Compound 22]	3.58						2.4	0.012	0.012	4.27	3.21	Cmax [2]: 8 ± 2 nM; AUC(0-t) [2]: 0.006 ± 0.002 µM·h; Tmax [2]: 30 min; Cmax [3]: BLQ; colonic absorption versus metabolite Compound 1a [5]: significant increase in colonic absorption; Cmax [5]: 10 ± 3 nM; AUC(0-t) [5]: 0.014 ± 0.003 µM·h; Tmax [5]: 15 min
CC(=O)OC(Oc1c(C(=O)NCc2ccc(F)cc2)nc(C(C)(C)NC(=O)c2nnc(C)o2)n(C)c1=O)C(C)C (stereo not shown) [Compound 23]	50.65									28.06	8.14	
